Test results: patent US20160152607A1, “MALEIC ACID DERIVATIVE, PRODUCTION METHOD FOR SAME, AND ANTI-CANCER COMPOSITION COMPRISING SAME” (Medicinal Bioconvergence Research Center, priority 2013, published 2016)

Columns and labels:
Format in all cases: cell-based
[1] = Cytotoxicity on normal cell line L929 (cell counting kit-8, WST-8); conditions: mouse, L929 cells (NCTC clone 929, fibroblast cell line)
Method: (§1) For the normal cell lines, five cell lines, VERO (African green monkey kidney cell line), HFL-1 (human embryonic lung cell line), L929 (NCTC clone 929, mouse fibroblast cell line), NIH 3T3 (mouse embryonic fibroblast cell line), and CHO-K1 (Chinese hamster overy cell line) were used.
(§2) For the cytotoxicity, all the cells were seeded at 1×10^4, and for a generalized test for investigating cell viability, the CC50 value, which is the concentration of a compound killing 50% of cells, was measured by cell counting kit-8 assay using tetrazolium salt named WST-8 displaying a pale yellow color.

[2] = Cytotoxicity on normal cell line VERO (cell counting kit-8, WST-8); conditions: African green monkey, VERO cells (kidney cell line), read-out: Cytotoxicity CC50 (μM), ERO
Method: as §1, §2

[3] = Cytotoxicity on normal cell line NIH 3T3 (cell counting kit-8, WST-8); conditions: mouse, NIH 3T3 cells (embryonic fibroblast cell line); NIH 3T3 normal cell line
Method: as §1, §2

H460 cells = assay: MTT cytotoxicity on lung cancer cells (H460); conditions: medium with 0.5% serum
Method: H460 cells were dispensed in medium containing 0.5% serum at 1×10^4 per well, and were treated with the compounds. MTT solution (5 mg/mL) was diluted 10-fold, and dispensed at 10 μl per well, followed by culturing for 30 minutes. The precipitate was dissolved in 100 μl of DMSO, and the absorbance was measured using a microplate reader (Sunrise, TECAN) at a wavelength of […].

[4] = Cytotoxicity on normal cell line HFL-1 (cell counting kit-8, WST-8); conditions: human, HFL-1 cells (embryonic lung cell line); HFL-1 normal cell line; read-out: Cytotoxicity CC50 (μM), FL-1
Method: as §1, §2

[5] = Cytotoxicity on normal cell line CHO-K1 (cell counting kit-8, WST-8); conditions: Chinese hamster, CHO-K1 cells (ovary cell line)
Method: as §1, §2

Cc1ccnc(NC(=O)/C=C\C(=O)N2CCOCC2)c1 [Example 1-20, (Z)—N-(4-methylpyridin-2-yl)-4-morpholino-4-oxobut-2-enamide]
CC50 [1]: 100 µM | CC50 [2]: 100 µM | CC50 [3]: > 100 µM | Inhibition of proliferation of H460 cells (MTT, FIG. 1) (H460 cells): significantly inhibited the proliferation of H460 cells in a dose-dependent manner | CC50 [4]: 100 µM | CC50 [5]: > 100 µM

Cc1ccnc(NC(=O)/C=C\C(=O)N2CCCCC2)c1 [Example 1-14, (Z)—N-(4-methylpyridin-2-yl)-4-oxo-4-(piperidin-1-yl)but-2-enamide]
Inhibition of proliferation of H460 cells (MTT, FIG. 1) (H460 cells): significantly inhibited the proliferation of H460 cells in a dose-dependent manner
